According to patent US20250018048A1, “FLUCONAZOLE-COX INHIBITOR HYBRIDS: A DUAL-ACTING CLASS OF ANTIFUNGAL AZOLES” (Ramot at Tel-Aviv University Ltd., priority 2022, published 2025):
Entries after “also recorded” stand apart in the source; their conditions may differ.

Tested on: panel of 16 representative strains of different species of the genus Candida
Assay: Antifungal activity (MIC80) against a panel of Candida strains, comparison
Assay type: cell-based
Conditions: azole-susceptible strains
Description: The antifungal activities of the 24 azole-COX inhibitor hybrids were evaluated against a panel of 16 representative strains of different species of the genus Candida. Candida species cause both superficial and systemic infections. The panel included strains of C. albicans, C. glabrata, C. parapsilosis, C. tropicalis, C. guilliermondii, C. dubliniensis, and C. auris (Table S2). To evaluate antifungal activity, the minimal inhibitory concentration 80% (MIC80) values were determined, which were defined as the lowest drug concentrations with turbidity (measured at OD600) less than or equal to that of specific 1:5 dilutions of the growth control. As controls, FLC and VOR, were tested.
MIC80 values were determined using the broth microdilution method over a concentration range of 0.003-64 μg/mL. Orange circles represent C. albicans strains, yellow circles represent C. glabrata strains, and green circles represent C. parapsilosis, C. tropicalis, C. dubliniensis and C. auris. Cells were grown in YPAD medium at 30° C. (For C. auris strains 37° C.) 24 h. Each concentration was tested in triplicate, and results were confirmed in at least two independent experiments.
C. albicans, C. glabrata, C. parapsilosis, C. guilliermondii, C. tropicalis, and C. dubliniensis MICs were determined using CLSI M27-A3 guidelines with minor modifications. Starter cultures were streaked from glycerol stock onto YPAD agar plates and grown for 24 h at 30° C. Colonies were suspended in 1 mL PBS and diluted to 1×10^−3 OD600 and then diluted 1:100 into fresh medium. Hybrids dissolved in DMSO were added to YPAD broth (32 μL stock solution in 1218 μL of YPAD broth), and serial double dilutions of hybrids in YPAD were prepared in flat-bottomed 96-well microplates (Corning) to enable testing of concentrations ranging from 64 μg/mL to 0.003 μg/mL. Control wells with yeast cells but no drug and blank wells containing only YPAD were prepared. An equal volume (100 μL) of yeast suspensions in YPAD broth was added to each well with the exceptions of the blank wells. MIC values (Tables S4-S6) were determined after 24 h at 30° C. by measuring the OD600 using a plate reader (Infinite M200 PRO, Tecan). MIC values were defined as the point at which the OD600 was reduced by >80% compared to the no-drug wells. Each concentration was tested in triplicate, and results were confirmed by two independent sets of experiments. FLC and VOR were used as control drugs.

In the case of `CC(C)Cc1ccc([C@H](C)C(=O)NC[C@](O)(Cn2cncn2)c2ccc(F)cc2F)cc1` [Hybrid 1], the “Antifungal potency (MIC80) in comparison with FLC, VOR or the corresponding stereoisomer” value is reported as “lowest MIC80 values against all of the azole-susceptible strains; also recorded: up to two orders of magnitude more potent than FLC and was as potent as VOR”.

In the case of `C[C@H](C(=O)NC[C@](O)(Cn1cncn1)c1ccc(F)cc1F)c1ccc(-c2ccccc2)c(F)c1` [Hybrid 5], the “Antifungal potency (MIC80) in comparison with FLC, VOR or the corresponding stereoisomer” value is reported as “lowest MIC80 values against all of the azole-susceptible strains; also recorded: more potent than the corresponding R-configured ibuprofen hybrid 6”.
